Test results as given in ChEMBL document CHEMBL3045857, “Monitoring of spirodiclofen susceptibility in field populations of European red mites, Panonychus ulmi (Koch) (Acari: Tetranychidae), and the cross-resistance pattern of a laboratory-selected strain” (2011).
In brackets after ≈: the same amount, converted by molar mass.

How the values were obtained:
Format in all cases: functional
Panonychus ulmi [1] = test: Resistance ratio, LC50 for adult Panonychus ulmi HS to LC50 for adult Panonychus ulmi PSR TK
Panonychus ulmi [2] = test: Insecticidal activity against Panonychus ulmi PSR-TK in plum tree leaf assessed as mortality at adult stage compound treated by spray application measured after 7 to 8 days treatment
Panonychus ulmi [3] = test: Insecticidal activity against Panonychus ulmi HS in plum tree leaf assessed as mortality at adult stage compound treated by spray application measured after 7 to 8 days treatment
Panonychus ulmi [4] = test: Resistance ratio, LC50 for adult Panonychus ulmi HS to LC50 for adult Panonychus ulmi GE 16/09
Panonychus ulmi [5] = test: Resistance ratio, LC50 for larvae Panonychus ulmi HS to LC50 for larvae Panonychus ulmi PSR TK
Panonychus ulmi [6] = test: Resistance ratio, LC50 for egg Panonychus ulmi HS to LC50 for egg Panonychus ulmi PSR TK
Panonychus ulmi [7] = test: Insecticidal activity against Panonychus ulmi PSR-TK in plum tree leaf assessed as mortality at egg stage compound treated by spray application measured after 7 to 8 days treatment
Panonychus ulmi [8] = test: Insecticidal activity against Panonychus ulmi HS in plum tree leaf assessed as egg mortality compound treated by spray application measured after 7 to 8 days treatment
Panonychus ulmi [9] = test: Insecticidal activity against Panonychus ulmi PSR-TK in plum tree leaf assessed as mortality at larvae stage compound treated by spray application measured after 7 to 8 days treatment
Panonychus ulmi [10] = test: Insecticidal activity against Panonychus ulmi HS in plum tree leaf assessed as larvae mortality compound treated by spray application measured after 7 to 8 days treatment
Panonychus ulmi [11] = test: Insecticidal activity against Panonychus ulmi Ge13/09 in plum tree leaf assessed as egg mortality compound treated by spray application measured after 7 to 8 days treatment
Panonychus ulmi [12] = test: Insecticidal activity against Panonychus ulmi Ge16/09 in plum tree leaf assessed as larvae mortality compound treated by spray application measured after 7 to 8 days treatment
Panonychus ulmi [13] = test: Resistance ratio, LC50 for egg Panonychus ulmi Ge16/09 to LC50 for egg Panonychus ulmi HS
Panonychus ulmi [14] = test: Resistance ratio, LC50 for egg Panonychus ulmi Ge15/09 to LC50 for egg Panonychus ulmi HS
Panonychus ulmi [15] = test: Resistance ratio, LC50 for egg Panonychus ulmi Ge14/09 to LC50 for egg Panonychus ulmi HS
Panonychus ulmi [16] = test: Resistance ratio, LC50 for egg Panonychus ulmi Ge13/09 to LC50 for egg Panonychus ulmi HS
Panonychus ulmi [17] = test: Resistance ratio, LC50 for larvae Panonychus ulmi Ge16/09 to LC50 for larvae Panonychus ulmi HS
Panonychus ulmi [18] = test: Resistance ratio, LC50 for larvae Panonychus ulmi Ge14/09 to LC50 for larvae Panonychus ulmi HS
Panonychus ulmi [19] = test: Resistance ratio, LC50 for larvae Panonychus ulmi Ge15/09 to LC50 for larvae Panonychus ulmi HS
Panonychus ulmi [20] = test: Resistance ratio, LC50 for larvae Panonychus ulmi Ge13/09 to LC50 for larvae Panonychus ulmi HS
Panonychus ulmi [21] = test: Insecticidal activity against Panonychus ulmi Ge16/09 in plum tree leaf assessed as egg mortality compound treated by spray application measured after 7 to 8 days treatment
Panonychus ulmi [22] = test: Insecticidal activity against Panonychus ulmi Ge15/09 in plum tree leaf assessed as egg mortality compound treated by spray application measured after 7 to 8 days treatment
Panonychus ulmi [23] = test: Insecticidal activity against Panonychus ulmi Ge14/09 in plum tree leaf assessed as egg mortality compound treated by spray application measured after 7 to 8 days treatment
Panonychus ulmi [24] = test: Insecticidal activity against Panonychus ulmi Ge15/09 in plum tree leaf assessed as larvae mortality compound treated by spray application measured after 7 to 8 days treatment
Panonychus ulmi [25] = test: Insecticidal activity against Panonychus ulmi Ge14/09 in plum tree leaf assessed as larvae mortality compound treated by spray application measured after 7 to 8 days treatment
Panonychus ulmi [26] = test: Insecticidal activity against Panonychus ulmi Ge13/09 in plum tree leaf assessed as larvae mortality compound treated by spray application measured after 7 to 8 days treatment

SMILES | RatioLC50 (Panonychus ulmi [1]) | LC50 (Panonychus ulmi [2]) | LC50 (Panonychus ulmi [3]) | RatioLC50 (Panonychus ulmi [5]) | RatioLC50 (Panonychus ulmi [6]) | LC50 (Panonychus ulmi [7]) | LC50 (Panonychus ulmi [8]) | LC50 (Panonychus ulmi [9]) | LC50 (Panonychus ulmi [10]) | also measured
CCCCCCCCCCCCC1=C(OC(C)=O)C(=O)c2ccccc2C1=O [ACEQUINOCYL] | 3 | 1.3 µg/mL (≈ 3.38 µM) | 2.75 µg/mL (≈ 7.15 µM) |  |  |  |  |  |  | 
C[C@@H]1[C@@H](c2ccc(Cl)cc2)SC(=O)N1C(=O)NC1CCCCC1 [HEXYTHIAZOX] |  |  |  | >20000 | >1600 | 4.32 µg/mL (≈ 12.2 µM) | 5.99 µg/mL (≈ 17 µM) | 4.05 µg/mL (≈ 11.5 µM) | 0.43 µg/mL (≈ 1.22 µM) | RatioLC50 (Panonychus ulmi [4]): >20000
CCc1nn(C)c(C(=O)NCc2ccc(C(C)(C)C)cc2)c1Cl [TEBUFENPYRAD] | 30.3 | 11.2 µg/mL (≈ 33.5 µM) | 0.37 µg/mL (≈ 1.11 µM) |  |  |  |  |  |  | 
Clc1ccccc1-c1nnc(-c2ccccc2Cl)nn1 [CLOFENTEZINE] |  |  |  | >1800 | >160 | > 10000 µg/mL | 61.3 µg/mL (≈ 202 µM) | > 10000 µg/mL | 5.53 µg/mL (≈ 18.2 µM) | RatioLC50 (Panonychus ulmi [4]): >3900
CCOc1cc(C(C)(C)C)ccc1C1COC(c2c(F)cccc2F)=N1 (stereo not given) [ETOXAZOLE] |  |  |  | 10 |  |  |  | > 10000 µg/mL | 0.15 µg/mL (≈ 0.417 µM) | 
Cc1nn(C)c(/C(OC(=O)C(C)(C)C)=C(\C#N)c2ccc(C(C)(C)C)cc2)c1C [CYENOPYRAFEN] | 23.5 | 7.13 µg/mL (≈ 18.1 µM) | 0.3 µg/mL (≈ 0.762 µM) |  |  |  |  |  |  | 
Cc1cc(C)c(C2=C(OC(=O)CC(C)(C)C)C3(CCCC3)OC2=O)c(C)c1 [SPIROMESIFEN] |  |  |  | 30.4 | 4 | 0.36 µg/mL (≈ 0.972 µM) | 1.07 µg/mL (≈ 2.89 µM) | 3.73 µg/mL (≈ 10.1 µM) | 0.13 µg/mL (≈ 0.351 µM) | 
CCC(C)(C)C(=O)OC1=C(c2ccc(Cl)cc2Cl)C(=O)OC12CCCCC2 [SPIRODICLOFEN] |  |  |  | >7000 | 56 | > 10000 µg/mL | 0.52 µg/mL (≈ 1.26 µM) | > 10000 µg/mL | 1.39 µg/mL (≈ 3.38 µM) | LC50 (Panonychus ulmi [11]): 0.59 µg/mL (≈ 1.43 µM); LC50 (Panonychus ulmi [12]): 59.6 µg/mL (≈ 145 µM); RatioLC50 (Panonychus ulmi [13]): 1.2; RatioLC50 (Panonychus ulmi [14]): 1.8; RatioLC50 (Panonychus ulmi [15]): 2.9; RatioLC50 (Panonychus ulmi [16]): 1.1; RatioLC50 (Panonychus ulmi [17]): 59; RatioLC50 (Panonychus ulmi [18]): 33; RatioLC50 (Panonychus ulmi [19]): 27; RatioLC50 (Panonychus ulmi [20]): 12; LC50 (Panonychus ulmi [21]): 0.66 µg/mL (≈ 1.6 µM); LC50 (Panonychus ulmi [22]): 0.96 µg/mL (≈ 2.33 µM); LC50 (Panonychus ulmi [23]): 1.53 µg/mL (≈ 3.72 µM); LC50 (Panonychus ulmi [24]): 27.6 µg/mL (≈ 67.1 µM); LC50 (Panonychus ulmi [25]): 33 µg/mL (≈ 80.2 µM); LC50 (Panonychus ulmi [26]): 12.1 µg/mL (≈ 29.4 µM)
CCOC(=O)OC1=C(c2cc(C)ccc2C)C(=O)N[C@]12CC[C@@H](OC)CC2 [SPIROTETRAMAT] |  |  |  | 3 |  |  |  | 538 µg/mL (≈ 1440 µM) | 1.09 µg/mL (≈ 2.92 µM) | 
COc1ccc(-c2ccccc2)cc1NNC(=O)OC(C)C [BIFENAZATE] | 1 | 1.3 µg/mL (≈ 4.33 µM) | 1.42 µg/mL (≈ 4.73 µM) |  |  |  |  |  |  | 
